Reference: patent US9944654B2, “Nargenicin compounds and uses thereof as antibacterial agents” (priority 2014, dated 2018)
In brackets after ≈: the same amount, converted by molar mass. Where two headings read alike, the source gives them in different places.

What was measured:
[1] = test system: Streptococcus pneumoniae MB6357 (CL 2883); assay: Nargenicin antibacterial assay (MIC), S. pneumoniae; format: cell-based; conditions: * = some reduction of growth versus control at […]; for MIC: Streptococcus pneumoniae, read-out: S. pneumoniae MB2883 (MIC), Isosensitest broth; for S. pneumoniae MB2883 (MIC): Isosensitest broth
[2] = molecular target: T1, S. aureus DnaE (DNA polymerase III α-subunit homolog from Staphylococcus aureus) (Staphylococcus aureus, UniProt Q5HF71); assay: biochemical; format: biochemical
T1 construct: SaDnaE (S. aureus DnaE residues 1-1065); 6xHis (N); made in house; host or cells: E. coli BL21-AI
T1 sequence (Q5HF71 1-1065): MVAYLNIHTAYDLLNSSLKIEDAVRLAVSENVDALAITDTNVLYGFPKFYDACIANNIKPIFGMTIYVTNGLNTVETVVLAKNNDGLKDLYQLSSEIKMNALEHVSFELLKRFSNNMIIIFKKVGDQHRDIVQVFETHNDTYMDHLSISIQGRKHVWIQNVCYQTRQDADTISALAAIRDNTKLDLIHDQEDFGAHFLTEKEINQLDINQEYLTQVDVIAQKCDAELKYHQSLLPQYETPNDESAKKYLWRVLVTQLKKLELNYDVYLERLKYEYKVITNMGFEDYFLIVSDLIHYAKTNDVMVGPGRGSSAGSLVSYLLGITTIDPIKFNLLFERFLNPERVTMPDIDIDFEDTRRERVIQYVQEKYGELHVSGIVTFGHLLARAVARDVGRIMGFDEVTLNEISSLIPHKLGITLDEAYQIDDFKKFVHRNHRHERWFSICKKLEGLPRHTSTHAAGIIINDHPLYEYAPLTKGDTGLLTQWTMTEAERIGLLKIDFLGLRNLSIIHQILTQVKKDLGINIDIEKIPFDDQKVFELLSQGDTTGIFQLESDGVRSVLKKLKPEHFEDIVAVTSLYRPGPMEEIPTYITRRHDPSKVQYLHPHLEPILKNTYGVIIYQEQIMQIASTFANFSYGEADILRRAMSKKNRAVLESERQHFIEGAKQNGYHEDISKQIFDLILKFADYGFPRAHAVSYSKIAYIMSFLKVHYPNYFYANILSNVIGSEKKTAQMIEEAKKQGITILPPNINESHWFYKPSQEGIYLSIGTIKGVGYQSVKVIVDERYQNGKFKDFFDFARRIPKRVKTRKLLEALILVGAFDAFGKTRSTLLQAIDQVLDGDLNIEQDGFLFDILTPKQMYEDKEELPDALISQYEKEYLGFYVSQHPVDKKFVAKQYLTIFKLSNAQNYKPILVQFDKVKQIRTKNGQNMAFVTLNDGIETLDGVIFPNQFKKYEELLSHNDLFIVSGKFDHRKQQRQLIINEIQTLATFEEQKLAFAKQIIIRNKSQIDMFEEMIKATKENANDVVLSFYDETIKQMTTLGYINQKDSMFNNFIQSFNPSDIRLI
Summary of the method: (§1)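 3H-dTTP (0.011 mM) incorporation into DNase I-activated calf thymus DNA, alongside the other three dNTPs at 0.025 mM, measured by filter counting after TCA precipitation. Reactions ran 30 min at 30° C., started with purified N-His DnaE: 0.8 μg/ml for E. coli, 0.05 μg/ml for S. aureus.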

[3] = molecular target: T2, E. coli DnaE (DNA polymerase III α-subunit from Escherichia coli) (Escherichia coli, UniProt P10443); assay: In vitro DnaE single enzyme assay (E. coli); format: biochemical
T2 construct: EcDnaE (E. coli DnaE residues 1-1160); 6xHis (N); made in house; host or cells: E. coli BL21(DE3)
Summary of the method: as §1

[4] = test system: Escherichia coli MB5747 (LS 883, tolC); assay: microbe, parasite or virus in culture; format: cell-based; conditions: * = some reduction of growth versus control at […]; for MIC: Escherichia coli, read-out: E. coli LS883 tolC (MIC), MHII broth; for E. coli LS883 tolC (MIC): MHII broth
[5] = test system: Staphylococcus aureus MB6266 (MRSA COL); assay: Nargenicin antibacterial assay (MIC), S. aureus; format: cell-based; conditions: * = some reduction of growth versus control at […]; for MIC: Staphylococcus aureus, MRSA, read-out: S. aureus COL (MIC), MHII broth + 50% human serum; for S. aureus COL (MIC): MHII broth + 50% human serum
[6] = test system: Pseudomonas aeruginosa MB5890 (CB1101, efflux-deleted); assay: microbe, parasite or virus in culture; format: cell-based; conditions: * = some reduction of growth versus control at […]; for MIC: Pseudomonas aeruginosa, read-out: P. aeruginosa MB5890 efflux-del (MIC), MHII broth; for P. aeruginosa MB5890 efflux-del (MIC): MHII broth
[7] = read-out: E. coli DnaE IC50 (converted)
[8] = read-out: S. aureus DnaE IC50 (converted)

T2 sequence (P10443 whole entry, the tested form may be a part): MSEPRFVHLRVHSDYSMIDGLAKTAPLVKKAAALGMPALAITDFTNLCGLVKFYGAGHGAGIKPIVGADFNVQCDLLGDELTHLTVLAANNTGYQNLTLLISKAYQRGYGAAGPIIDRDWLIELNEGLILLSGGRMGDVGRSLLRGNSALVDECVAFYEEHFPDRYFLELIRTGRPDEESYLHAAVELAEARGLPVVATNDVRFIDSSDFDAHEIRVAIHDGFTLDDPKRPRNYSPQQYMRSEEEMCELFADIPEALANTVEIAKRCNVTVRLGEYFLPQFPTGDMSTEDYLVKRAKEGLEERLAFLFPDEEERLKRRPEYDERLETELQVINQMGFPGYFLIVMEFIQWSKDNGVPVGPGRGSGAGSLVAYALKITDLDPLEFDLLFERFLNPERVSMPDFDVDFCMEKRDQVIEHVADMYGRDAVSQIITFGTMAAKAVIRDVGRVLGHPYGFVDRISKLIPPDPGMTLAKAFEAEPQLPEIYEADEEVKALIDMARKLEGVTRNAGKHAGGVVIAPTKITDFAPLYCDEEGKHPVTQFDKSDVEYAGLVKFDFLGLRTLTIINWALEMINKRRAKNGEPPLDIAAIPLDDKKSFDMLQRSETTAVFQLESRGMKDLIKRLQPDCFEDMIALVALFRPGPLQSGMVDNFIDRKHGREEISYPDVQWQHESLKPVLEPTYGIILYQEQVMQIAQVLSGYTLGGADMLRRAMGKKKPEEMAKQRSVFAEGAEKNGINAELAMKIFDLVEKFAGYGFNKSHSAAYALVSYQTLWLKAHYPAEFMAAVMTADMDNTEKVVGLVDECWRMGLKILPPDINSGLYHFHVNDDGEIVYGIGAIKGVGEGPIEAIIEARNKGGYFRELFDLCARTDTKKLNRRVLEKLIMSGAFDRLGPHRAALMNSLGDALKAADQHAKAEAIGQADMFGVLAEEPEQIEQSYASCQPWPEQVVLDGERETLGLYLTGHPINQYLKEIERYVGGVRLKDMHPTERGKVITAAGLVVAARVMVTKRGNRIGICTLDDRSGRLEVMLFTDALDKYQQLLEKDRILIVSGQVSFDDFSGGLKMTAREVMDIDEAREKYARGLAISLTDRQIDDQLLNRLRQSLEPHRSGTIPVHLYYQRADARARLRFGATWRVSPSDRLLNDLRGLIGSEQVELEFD

SMILES	MIC [1]	IC50 ([2]; S. aureus DnaE IC50)	IC50 [3, 7]	MIC [4]	MIC [5]	MIC [6]	IC50 [2, 8]	IC50 ([3]; E. coli DnaE IC50)	S. pneumoniae MB2883 (MIC) [1]	S. aureus DnaE IC50 [2]	E. coli DnaE IC50 [3]	E. coli LS883 tolC (MIC) [4]	S. aureus COL (MIC) [5]	P. aeruginosa MB5890 efflux-del (MIC) [6]
CO[C@H]1C[C@H]2C=CC3C4[C@H](O)[C@@H](C)[C@@H](OC(=O)c5ccc[nH]5)[C@@H]3O[C@]42/C(C)=C/[C@@H](C)[C@@H]([C@@H](C)OC(=O)n2nnnc2N)OC1=O [Example 64]	> 128 µg/mL	< 0.00957 µM	46.3 µM	4 µg/mL (≈ 6.38 µM)	4 µg/mL	128 µg/mL (≈ 204 µM)	–	–	–	–	–	–	–	–
CO[C@H]1C[C@H]2C=C[C@H]3[C@H]4O[C@]2(/C(C)=C/[C@@H](C)[C@@H]([C@@H](C)OC(=O)OCC(C)(N)CO)OC1=O)[C@@H]3[C@H](O)[C@@H](C)[C@H]4OC(=O)c1ccc[nH]1.O=C(O)C(F)(F)F (stereo partly drawn) [Example 28]	128 µg/mL	~0.00657 µM	> 131 µM	2 µg/mL	2 µg/mL	32 µg/mL	–	–	–	–	–	–	–	–
CO[C@H]1C[C@H]2C=C[C@H]3[C@H]4O[C@]2(/C(C)=C/[C@@H](C)[C@@H]([C@@H](C)O)OC1=O)[C@@H]3C(=O)C(C)[C@H]4C#N (stereo partly drawn) [Example 176, (3R,4 S ,7S ,8aS ,10aR,11R,12S ,14aR,14b S,E)-4-((R)-1-hydroxyethyl)-7-methoxy-1,3,13-trimethyl-6,14-dioxo-3,4,6,7,8,8a,10a,11,12,13,14,14a-dodecahydro-11,14b-epoxynaphtho[2,1-e]oxecine-12-carbonitrile]	> 128 µg/mL	–	–	> 128 µg/mL	> 128 µg/mL	> 128 µg/mL	25.6 µM	> 233 µM	–	–	–	–	–	–
CO[C@H]1C[C@H]2C=C[C@H]3[C@H]4O[C@]2(/C(C)=C/[C@@H](C)[C@@H]([C@@H](C)OC(=O)NCc2ccc(O)c(O)c2)OC1=O)[C@@H]3[C@H](O)[C@@H](C)[C@H]4OC(=O)c1ccc[nH]1 [Example 17]	> 128 µg/mL	< 0.00881 µM	22 µM	8 µg/mL (≈ 11.8 µM)	8 µg/mL	> 128 µg/mL	–	–	–	–	–	–	–	–
CO[C@H]1C[C@H]2C=CC3C4[C@H](O)[C@@H](C)[C@@H](OC(=O)c5cc(-c6cccnc6)c[nH]5)[C@@H]3O[C@]42/C(C)=C/[C@@H](C)[C@@H]([C@@H](C)O)OC1=O [Example 164, (3R,4S,7S,8aS,11R,12R,13R,14R,14bS,E)-14-hydroxy-4-((R)-1-hydroxyethyl)-7-methoxy-1,3,13-trimethyl-6-oxo-3,4,6,7,8,8a,10a,11,12,13,14,14a-dodecahydro-11,14b-epoxynaphtho[2,1-e]oxecin-12-yl 4-(pyridin-3-yl)-1H-pyrrole-2-carboxylate]	32 µg/mL (≈ 54 µM)	10.1 µM	–	16 µg/mL (≈ 27 µM)	> 128 µg/mL	> 128 µg/mL	–	> 169 µM	–	–	–	–	–	–
CO[C@H]1C[C@H]2C=C[C@H]3[C@H]4O[C@]2(/C(C)=C/[C@@H](C)[C@@H]([C@@H](C)OC(=O)NC2CC2)OC1=O)[C@@H]3[C@H](O)[C@@H](C)[C@H]4OC(=O)c1ccc[nH]1 [Example 6]	128 µg/mL (≈ 214 µM)	0.0184 µM	75.2 µM	4 µg/mL (≈ 6.68 µM)	8 µg/mL	> 128 µg/mL	–	–	–	–	–	–	–	–
CO[C@H]1C[C@H]2C=C[C@H]3[C@H]4O[C@]2(/C(C)=C/[C@@H](C)[C@@H]([C@@H](C)OC(=O)NCc2ccncc2)OC1=O)[C@@H]3[C@H](O)[C@@H](C)[C@H]4OC(=O)c1ccc[nH]1 [Example 11]	> 128 µg/mL	0.0292 µM	123 µM	16 µg/mL (≈ 24.6 µM)	32 µg/mL	> 128 µg/mL	–	–	–	–	–	–	–	–
CO[C@H]1C[C@H]2C=C[C@H]3[C@H]4O[C@]2(/C(C)=C/[C@@H](C)[C@@H]([C@@H](C)O)OC1=O)[C@@H]3[C@H](O)C(C)[C@@H]4NCCN.O=C(O)C(F)(F)F (stereo partly drawn) [Example 155]	> 128 µg/mL	–	–	> 128 µg/mL	> 128 µg/mL	128 µg/mL	2.59 µM	> 173 µM	–	–	–	–	–	–
C=CC[C@H]1OC(=O)[C@@H](OC)C[C@H]2C=C[C@H]3[C@H]4O[C@]2(/C(C)=C/[C@H]1C)[C@@H]3[C@H](O)[C@@H](C)[C@H]4OC(=O)c1ccc[nH]1 [Example 55]	> 64 µg/mL	< 0.0117 µM	11.7 µM	2 µg/mL (≈ 3.91 µM)	2 µg/mL	32 µg/mL (≈ 62.5 µM)	–	–	–	–	–	–	–	–
CO[C@H]1C[C@H]2C=CC3C4[C@H](O)[C@@H](C)[C@@H](OC(=O)c5ccc[nH]5)[C@@H]3O[C@]42/C(C)=C/[C@@H](C)[C@@H]([C@@H](C)OC(=O)C(=O)NC(C)(C)C)OC1=O [Example 116]	–	–	–	–	–	–	–	–	>128* μg/mL	0.006 µg/mL	15 µg/mL	0.25 µg/mL	≤0.125 µg/mL	8 µg/mL
CO[C@H]1C[C@H]2C=C[C@H]3[C@H]4O[C@]2(/C(C)=C/[C@@H](C)[C@@H]([C@@H](C)O)OC1=O)[C@@H]3[C@H](O)C(C)[C@@H]4NCc1ccncc1.O=C(O)C(F)(F)F (stereo partly drawn) [Example 154]	> 128 µg/mL	–	–	> 128 µg/mL	> 128 µg/mL	> 128 µg/mL	112 µM	> 160 µM	–	–	–	–	–	–
CO[C@H]1C[C@H]2C=C[C@H]3[C@H]4O[C@]2(/C(C)=C/[C@@H](C)[C@@H]([C@@H](C)O)OC1=O)[C@@H]3[C@H](O)C(C)[C@@H]4NCCN1CCCC1.O=C(O)C(F)(F)F (stereo partly drawn) [Example 157]	> 128 µg/mL	–	–	> 128 µg/mL	> 128 µg/mL	> 128 µg/mL	3.32 µM	> 158 µM	–	–	–	–	–	–
CO[C@H]1C[C@H]2C=C[C@H]3[C@H]4O[C@]2(/C(C)=C/[C@@H](C)[C@@H]([C@@H](C)O)OC1=O)[C@@H]3[C@H](O)[C@@H](C)[C@H]4OC(N)=O [Example 197]	> 128 µg/mL	0.0236 µM	81.6 µM	2 µg/mL (≈ 4.3 µM)	128 µg/mL	2 µg/mL (≈ 4.3 µM)	–	–	–	–	–	–	–	–
CO[C@H]1C[C@H]2C=CC3C4[C@H](O)[C@@H](C)[C@@H](OC(=O)c5ccc[nH]5)[C@@H]3O[C@]42/C(C)=C/[C@@H](C)[C@@H]([C@@H](C)OC(=O)C(=O)NCc2ccncc2)OC1=O [Example 115]	–	–	–	–	–	–	–	–	>64 µg/mL	<0.006 µg/mL	9 µg/mL	0.5 µg/mL	0.5 µg/mL	8 µg/mL
CO[C@H]1C[C@H]2C=C[C@H]3[C@H]4O[C@]2(/C(C)=C/[C@@H](C)[C@@H]([C@@H](C)OC(=O)OCC(CO)CO)OC1=O)[C@@H]3[C@H](O)[C@@H](C)[C@H]4OC(=O)c1ccc[nH]1 [Example 36]	> 128 µg/mL	< 0.00926 µM	17 µM	2 µg/mL (≈ 3.09 µM)	2 µg/mL	64 µg/mL (≈ 98.8 µM)	–	–	–	–	–	–	–	–
CC[C@@H]1OC(=O)[C@@H](OC)C[C@H]2C=C[C@H]3[C@H]4O[C@]2(/C(C)=C/[C@H]1C)[C@@H]3[C@H](O)[C@@H](C)[C@H]4OC(=O)c1ccc[nH]1 [Example 49]	> 128 µg/mL	0.56 µM	> 200 µM	64 µg/mL (≈ 128 µM)	> 128 µg/mL	> 128 µg/mL	–	–	–	–	–	–	–	–
